Format in all cases: binding
Experiment [1] addresses T1, PCSK9 (Homo sapiens, UniProt Q8NBP7).
T1 construct: Biotinylated PCSK9 was obtained commercially; purchased
Nature of the experiment: PCSK9 Alexa FRET Plus TR-FRET assay (displacement of AlexaFluor647 tagged cyclic peptide Reagent B). As to conditions: for pKi: Ki Plus, 0.5 nM biotinylated PCSK9, 960 nM AF cyclic peptide Reagent B, Ki calculated from IC50 and KD of AF peptide. The method, then:
(§1) The following is a description of the assays used to determine activity of compounds of the invention, and any comparator compounds reported, toward PCSK9 antagonism. Biotinylated PCSK9 was obtained commercially.
A solution containing 1 nM biotinylated PCSK9+2.5 nM Lance Streptavidin Europium (Strep-Eu) is made in 50 mM HEPES pH 7.4, 0.15 M NaCl, 5 mM CaCl2, 0.01% BSA, and 0.01% Surfactant P20. A separate solution containing 1920 nM of the AlexaFluor tagged cyclic peptide is made in the same buffer system. An Echo is used to transfer 0.075 ul of compound plus 0.675 ul of DMSO to each well of an assay plate followed by the addition of 15 ul of PCSK9+Stept-Eu and 15 ul of AF peptide. The final assay volume is 30.750 ul containing 0.5 nM PCSK9, 1.25 nM Strep-Eu, and 960 nM AF cyclic peptide. The reaction is incubated at room temperature for at least two hours prior to fluorescence measurements using an Envision Multilabel Reader. IC50 values are determined by fitting data to a sigmoidal dose-response curve using nonlinear regression. Ki is then calculated from the IC50 and the KD of AF cyclic peptide. Counts (B-counts) of the europium-labeled PCSK9 are followed to observe if compounds are adversely affecting PCSK9. A fall off of the B-counts is likely indicates a false positive of inhibition. Data from this procedure is reported as “P=‘numerical value’ (nanomolar)”
(§2) Activity data obtained by one or both of the above-described procedures is reported for selected example compounds of the invention in the following format: Example No.: A (standard TR Fret)=‘numerical value’; P (Alexa Fret plus standard TR Fret)=‘numerical value’/, note that all values reported are nanomolar.

The target of experiment [2] is T1, PCSK9. Nature of the experiment: PCSK9 Alexa FRET Ultra TR-FRET assay (displacement of AlexaFluor647 tagged cyclic peptide). Particulars: for pKi: Ki Ultra, 0.5 nM biotinylated PCSK9, 960 nM AF cyclic peptide, Ki calculated from IC50 and KD of AF peptide. How it is done: as §1
A solution containing 1 nM biotinylated PCSK9+2.5 nM Lance Streptavidin Europium (Strep-Eu) is made in 50 mM HEPES pH 7.4, 0.15 M NaCl, 5 mM CaCl2, 0.01% BSA, and 0.01% Surfactant P20. A separate solution containing 1920 nM of the AlexaFluor tagged cyclic peptide is made in the same buffer system. An Echo is used to transfer 0.015 ul of compound plus 0.735 ul of DMSO to each well of an assay plate followed by the addition of 15 ul of PCSK9+Stept-Eu and 15 ul of AF peptide. The final assay volume is 30.750 ul containing 0.5 nM PCSK9, 1.25 nM Strep-Eu, and 960 nM AF cyclic peptide. The reaction is incubated at room temperature for at least two hours prior to fluorescence measurements using an Envision Multilabel Reader. IC50 values are determined by fitting data to a sigmoidal dose-response curve using nonlinear regression. Ki is then calculated from the IC50 and the KD of AF cyclic peptide. Counts (B-counts) of the europium-labeled PCSK9 are followed to observe if compounds are adversely affecting PCSK9. A fall off of the B-counts is likely indicates a false positive of inhibition. Data from this procedure is reported as “Ki Ultra=‘numerical value’ (data reported is nanomolar)”

Experiment [3] addresses T1, PCSK9. The experiment can be described thus: PCSK9 Alexa FRET Standard TR-FRET assay (displacement of AlexaFluor647 tagged cyclic peptide Reagent A). The method, then:
as §1
Alexa FRET Standard TR-FRET
A solution containing 1 nM biotinylated PCSK9+2.5 nM Lance Streptavidin Europium (Strep-Eu) is made in 50 mM HEPES pH 7.4, 0.15 M NaCl, 5 mM CaCl2, 0.01% BSA, and 0.01% Surfactant P20. A separate solution containing 40 nM of the AlexaFluor tagged cyclic peptide is made in the same buffer system. An Echo is used to transfer 0.750 ul of compound to an assay plate followed by the addition of 15 ul of PCSK9+Stept-Eu and 15 ul of AF peptide. The final assay volume is 30.750 ul containing 0.5 nM PCSK9, 1.25 nM Strep-Eu, and 20 nM AF cyclic peptide. The reaction is incubated at room temperature for at least two hours prior to fluorescence measurements using an Envision Multilabel Reader. […] values are determined by fitting data to a sigmoidal dose-response curve using nonlinear regression. Ki is then calculated from the IC50 and the KD of AF cyclic peptide. Counts (B-counts) of the europium-labeled PCSK9 are followed to observe if compounds are adversely PCSK9. A fall off of the B-counts likely indicates a false positive of inhibition. Data from this procedure is reported as “A=‘numerical value’ (nanomolar)”
as §2
(TR-FRET usually uses a lanthanide donor and a delayed reading to cut background.)

Molecules are shown by their SMILES. pKd, pKi: −log10 of the molar value. Starred links: 1 amine or outer side, 2 acyl side, 3 side chain; linkers in the order of their positions; H or OH if unused. Positions of bridges follow the written chain, without caps; N, C: chain ends. Non-standard residues stand in square brackets, D forms with d. Residues, ends and D or L forms follow the SMILES beside them. *: point of attachment. X1 = CC1(C)C(/C=C/C=C/C=C2\N(CCCS(=O)(=O)O)c3ccc(S(=O)(=O)O)cc3C2(C)CCCCCC(=O)*)=[N+](CCCS(=O)(=O)[O-])c2ccc(S(=O)(=O)O)cc21; Trp(5-F) = N[C@@H](Cc1c[nH]c2ccc(F)cc12)C(=O)O; mXylylene = c1cc(C[*:1])cc(C[*:2])c1; αMeP = C[C@@]1(C(=O)O)CCCN1; Mpa = O=C(O)CCS

T1 sequence (Q8NBP7 153-692): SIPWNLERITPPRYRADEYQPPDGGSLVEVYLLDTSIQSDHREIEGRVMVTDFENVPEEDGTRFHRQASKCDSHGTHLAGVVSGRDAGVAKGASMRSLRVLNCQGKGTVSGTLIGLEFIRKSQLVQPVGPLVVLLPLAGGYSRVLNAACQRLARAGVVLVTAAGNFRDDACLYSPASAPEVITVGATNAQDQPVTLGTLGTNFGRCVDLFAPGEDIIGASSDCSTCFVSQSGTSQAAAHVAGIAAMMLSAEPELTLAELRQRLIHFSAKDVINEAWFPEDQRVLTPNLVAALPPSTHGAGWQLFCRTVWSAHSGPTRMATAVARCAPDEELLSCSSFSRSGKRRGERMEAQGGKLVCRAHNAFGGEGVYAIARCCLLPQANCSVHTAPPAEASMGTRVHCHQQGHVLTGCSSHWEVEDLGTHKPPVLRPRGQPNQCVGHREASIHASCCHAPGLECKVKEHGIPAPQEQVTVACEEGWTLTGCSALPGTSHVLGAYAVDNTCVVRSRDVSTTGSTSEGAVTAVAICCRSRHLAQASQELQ

For the molecule `COc1ccc(C[C@@H]2NC(=O)[C@H]([C@@H](C)O)NC(=O)[C@@H]3[C@@H]4CCN3C(=O)[C@@H]3Cc5cn(c6ccc(F)cc56)CCCCCN(CCOc5ccc(cc5)CCNC(=O)[C@]5(C)CCCN5C2=O)C(=O)CCC(=O)N[C@@H](C)C(=O)N[C@H](CNC(=O)CCCCC[N+](C)(C)C)C(=O)N[C@@H](Cc2cccc(c2)CNC(=O)CO4)C(=O)N3)cc1` [Ex-41], the pKi at PCSK9 [1] was 11.16; on PCSK9 [2], 11.20.

As for `COc1ccc(C[C@@H]2NC(=O)[C@H]([C@@H](C)O)NC(=O)[C@@H]3[C@@H]4CCN3C(=O)[C@@H]3Cc5cn(c6ccc(F)cc56)CCCCCCN(Cc5cccc(c5)CCNC(=O)[C@]5(C)CCCN5C2=O)C(=O)CCC(=O)N[C@@H](C)C(=O)N[C@H](CNC(=O)CCCCC[N+](C)(C)C)C(=O)N[C@@H](Cc2cccc(c2)CNC(=O)CO4)C(=O)N3)cc1` [Ex-44], the pKi at PCSK9 [1] was 10.84; at PCSK9 [2], 10.66.

As for `COc1ccc(C[C@@H]2NC(=O)[C@H]([C@@H](C)O)NC(=O)[C@@H]3[C@@H]4CCN3C(=O)[C@@H]3Cc5cn(c6ccc(F)cc56)C/C=C/CC[C@@H](NC(=O)CCC(=O)N[C@@H](C)C(=O)N[C@H](CNC(=O)CCCCC[N+](C)(C)C)C(=O)N[C@@H](Cc5cccc(c5)CNC(=O)CO4)C(=O)N3)c3ccc(cc3)CCNC(=O)[C@]3(C)CCCN3C2=O)cc1` [Ex-47], the pKi was 10.83 at PCSK9 [1] and 10.92 on PCSK9 [2].

Consider `COc1ccc(C[C@@H]2NC(=O)[C@H]([C@@H](C)O)NC(=O)[C@@H]3C4CCN3C(=O)[C@@H]3Cc5cn(c6ccc(F)cc56)CCCCC[C@@H](NC(=O)CCC(=O)N[C@@H](C)C(=O)N[C@H](CNC(=O)CCOCCOCC[N+](C)(C)C)C(=O)N[C@@H](Cc5cccc(c5)CNC(=O)CO4)C(=O)N3)c3ccc(cc3)CCNC(=O)[C@]3(C)CCCN3C2=O)cc1` [Ex-48], for which the results for the negative-log Ki (pKi) at PCSK9 [1] and at PCSK9 [2] were 10.93 and 10.81, respectively.

For `COc1ccc(C[C@@H]2NC(=O)[C@H]([C@@H](C)O)NC(=O)[C@@H]3[C@@H]4CCN3C(=O)[C@@H]3Cc5cn(c6ccc(F)cc56)CCCCOCc5cc(ccc5CNC(=O)CCC(=O)N[C@@H](C)C(=O)N[C@H](CNC(=O)CCCCC[N+](C)(C)C)C(=O)N[C@@H](Cc5cccc(c5)CNC(=O)CO4)C(=O)N3)CCNC(=O)[C@]3(C)CCCN3C2=O)cc1` [Ex-49], the pKi is 11.15 on PCSK9 [1] and 11.38 at PCSK9 [2].

For `COc1ccc(C[C@@H]2NC(=O)[C@H]([C@@H](C)O)NC(=O)[C@@H]3[C@@H]4CCN3C(=O)[C@@H]3Cc5cn(c6ccc(F)cc56)CCCCCCN(Cc5ccc(cc5)CCNC(=O)[C@]5(C)CCCN5C2=O)C(=O)CCC(=O)N[C@@H](C)C(=O)N[C@H](CNC(=O)CCOCCOCCCN(C)C)C(=O)N[C@@H](Cc2cccc(c2)CNC(=O)CO4)C(=O)N3)cc1` [Ex-50], the pKi at PCSK9 [3] was more than 8.90; on PCSK9 [1] it was 10.98; at PCSK9 [2], 11.35.

On to `COc1ccc(C[C@@H]2NC(=O)[C@H]([C@@H](C)O)NC(=O)[C@@H]3[C@@H]4CCN3C(=O)[C@@H]3Cc5cn(c6ccc(F)cc56)C/C=C/CCCN(Cc5ccc(cc5)CCNC(=O)[C@]5(C)CCCN5C2=O)C(=O)CCC(=O)N[C@@H](C)C(=O)N[C@H](CN)C(=O)N[C@@H](Cc2cccc(c2)CNC(=O)CO4)C(=O)N3)cc1` [Ex-51], for which the results for the pKi on PCSK9 [3], at PCSK9 [1] and at PCSK9 [2] were more than 8.90, more than 11.25 and 11.22, respectively.

In the case of `COc1ccc(C[C@@H]2NC(=O)[C@H]([C@@H](C)O)NC(=O)[C@@H]3[C@@H]4CCN3C(=O)[C@@H]3Cc5cn(c6ccc(F)cc56)C/C=C/CCCN(Cc5ccc(cc5)CCNC(=O)[C@]5(C)CCCN5C2=O)C(=O)CCC(=O)N[C@@H](C)C(=O)N[C@H](CNC(=O)CCOCCOCC[N+](C)(C)C)C(=O)N[C@@H](Cc2cccc(c2)CNC(=O)CO4)C(=O)N3)cc1` [Ex-52], the pKi at PCSK9 [3] is more than 8.90; at PCSK9 [1] it was more than 11.25; on PCSK9 [2] it was 11.44.

Consider `COc1ccc(C[C@@H]2NC(=O)[C@H]([C@@H](C)O)NC(=O)[C@@H]3[C@@H]4CCN3C(=O)[C@@H]3Cc5cn(c6ccc(F)cc56)C/C=C/COc5cc(ccc5CNC(=O)CCC(=O)N[C@@H](C)C(=O)N[C@H](CN)C(=O)N[C@@H](Cc5cccc(c5)CNC(=O)CO4)C(=O)N3)CCNC(=O)[C@]3(C)CCCN3C2=O)cc1` [Ex-53], for which the pKi on PCSK9 [3] was more than 8.90; on PCSK9 [1], 10.02; at PCSK9 [2], 9.67.

As to `COc1ccc(C[C@@H]2NC(=O)[C@H]([C@@H](C)O)NC(=O)[C@@H]3[C@@H]4CCN3C(=O)[C@@H]3Cc5cn(c6ccc(F)cc56)CCCCOc5cc(ccc5CNC(=O)CCC(=O)N[C@@H](C)C(=O)N[C@H](CN)C(=O)N[C@@H](Cc5cccc(c5)CNC(=O)CO4)C(=O)N3)CCNC(=O)[C@]3(C)CCCN3C2=O)cc1` [Ex-54], the pKi at PCSK9 [3] was more than 8.90; at PCSK9 [1] it was 9.44; on PCSK9 [2] it was 9.32.

Take `COc1ccc(C[C@@H]2NC(=O)[C@H]([C@@H](C)O)NC(=O)[C@@H]3[C@@H]4CCN3C(=O)[C@@H]3Cc5cn(c6ccc(F)cc56)CCCCCCN(Cc5ccc(cc5)CCNC(=O)[C@]5(C)CCCN5C2=O)C(=O)CCC(=O)N[C@@H](C)C(=O)N[C@H](CNC(=O)CCOCCCCC[N+](C)(C)C)C(=O)N[C@@H](Cc2cccc(c2)CNC(=O)CO4)C(=O)N3)cc1` [Ex-59]: the results for the pKi on PCSK9 [1] and on PCSK9 [2] were 11.10 and 11.30, respectively.

Regarding `COc1ccc(C[C@@H]2NC(=O)[C@H]([C@@H](C)O)NC(=O)[C@@H]3[C@@H]4CCN3C(=O)[C@@H]3Cc5cn(c6ccc(F)cc56)CCCCCCN(Cc5ccc(cc5)CCNC(=O)[C@]5(C)CCCN5C2=O)C(=O)CCC(=O)N[C@@H](C)C(=O)N[C@H](CNC(=O)CNC(=O)CCCCC[N+](C)(C)C)C(=O)N[C@@H](Cc2cccc(c2)CNC(=O)CO4)C(=O)N3)cc1` [Ex-60], the figures for the pKi on PCSK9 [1] and at PCSK9 [2] were 11.19 and 11.27, respectively.

Turning to `COc1ccc(C[C@@H]2NC(=O)[C@H]([C@@H](C)O)NC(=O)[C@@H]3[C@@H]4CCN3C(=O)[C@@H]3Cc5cn(c6ccc(F)cc56)CCCCCCN(Cc5ccc(cc5)CCNC(=O)[C@]5(C)CCCN5C2=O)C(=O)CCC(=O)N[C@@H](C)C(=O)N[C@H](CNC(=O)CCCCCCCC[N+](C)(C)C)C(=O)N[C@@H](Cc2cccc(c2)CNC(=O)CO4)C(=O)N3)cc1` [Ex-61], the pKi on PCSK9 [1] is 11.13; on PCSK9 [2], 11.18.

Regarding `COc1ccc(C[C@@H]2NC(=O)[C@H](Cc3c[nH]cn3)NC(=O)[C@H](CC(=O)O)NC(=O)[C@H](Cc3c[nH]c4ccc(F)cc34)NC(=O)[C@H](Cc3c[nH]c4ccc(F)cc34)NC(=O)[C@@H](C)NC(=O)[C@H](CCCCNC(=O)CCCCCC3(C)/C(=C/C=C/C=C/C4=[N+](CCCS(=O)(=O)[O-])c5ccc(S(=O)(=O)O)cc5C4(C)C)N(CCCS(=O)(=O)O)c4ccc(S(=O)(=O)O)cc43)NC(=O)CCSCc3cccc(c3)CSC[C@@H](C(N)=O)NC(=O)[C@]3(C)CCCN3C2=O)cc1` (stereo partly drawn) [Reagent B, reference compound] ([Mpa]K(X1)[dA][Trp(5-F)][Trp(5-F)]DHY(Me)[αMeP]C-NH2; linker 1-10 via mXylylene), the pKd at PCSK9 [1] (probe of the Alexa FRET Plus assay) was 7.46; at PCSK9 [2] (probe of the Alexa FRET Ultra assay), 9.00.

The term pKi denotes the Ki on a negative log10 scale, so that one unit is a factor of ten. For orientation: pKd means the negative decadic logarithm of the Kd, by convention in mol/L.
